Assay results published in PubChem BioAssay AID1259411 (Chemical Carcinogenesis Research Information System (CCRIS), 2018).
Activity calls are given as the source filed them. How the calls were made is not given here.

Tested on: rodent carcinogenicity bioassays, tumor incidence
Assay: CCRIS carcinogenicity studies
Conditions: Dose: 0, Dose: 0
Method in brief: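 NCI-built, expert-reviewed records of carcinogenicity and related test outcomes (mutagenicity, tumor promotion/inhibition) compiled from published and report sources, historical span 1985-2011, not updated.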

For `ClC(Cl)Br`, the carcinogen call (Species: FISH, Strain/Sex: ORYZIAS LATIPES/FEMALE, Route: IMMERSION, 0.018, 0.143, 1.424 MG/L AQUEOUS SOLUTION FOR 6 MO (STUDY DURATION: 6 MO), 0.018, 0.143, 1.424 MG/L AQUEOUS SOLUTION FOR 6 MO (STUDY DURATION: 6 MO)) was “inactive; negative”, the carcinogen call (Species: FISH, Strain/Sex: ORYZIAS LATIPES/FEMALE, Route: IMMERSION, 0.018, 0.143, 1.424 MG/L AQUEOUS SOLUTION FOR 9 MO (STUDY DURATION: 9 MO), 0.018, 0.143, 1.424 MG/L AQUEOUS SOLUTION FOR 9 MO (STUDY DURATION: 9 MO)) was “inactive; negative” and the carcinogen call (Species: FISH, Strain/Sex: ORYZIAS LATIPES/MALE, Route: IMMERSION, 0.018, 0.143, 1.424 MG/L AQUEOUS SOLUTION FOR 6 MO (STUDY DURATION: 6 MO), 0.018, 0.143, 1.424 MG/L AQUEOUS SOLUTION FOR 6 MO (STUDY DURATION: 6 MO)) was “inactive; negative”. The carcinogen call (Species: FISH, Strain/Sex: ORYZIAS LATIPES/MALE, Route: IMMERSION, 0.018, 0.143, 1.424 MG/L AQUEOUS SOLUTION FOR 9 MO (STUDY DURATION: 9 MO), 0.018, 0.143, 1.424 MG/L AQUEOUS SOLUTION FOR 9 MO (STUDY DURATION: 9 MO)) was “inactive; negative”, the carcinogen call (Species: MOUSE, Strain/Sex: B6C3F1/FEMALE, Route: GAVAGE, 75, 150 MG/KG IN CORN OIL 5D/WK FOR 102 WK (STUDY DURATION: 105 WK), 75, 150 MG/KG IN CORN OIL 5D/WK FOR 102 WK (STUDY DURATION: 105 WK), Tumor Site: Type of Lesion: LIVER: HEPATOCELLULAR ADENOMA, LIVER: HEPATOCELLULAR CARCINOMA, LIVER: HEPATOCELLULAR ADENOMA OR CARCINOMA, Tumor Site: Type of Lesion: LIVER: HEPATOCELLULAR ADENOMA, LIVER: HEPATOCELLULAR CARCINOMA, LIVER: HEPATOCELLULAR ADENOMA OR CARCINOMA) was “active; positive” and the carcinogen call (Species: MOUSE, Strain/Sex: B6C3F1/MALE, Route: GAVAGE, 25, 50 MG/KG IN CORN OIL 5D/WK FOR 102 WK (STUDY DURATION: 105 WK), 25, 50 MG/KG IN CORN OIL 5D/WK FOR 102 WK (STUDY DURATION: 105 WK), Tumor Site: Type of Lesion: KIDNEY: TUBULAR CELL ADENOMA OR ADENOCARCINOMA) was “active; positive”. The carcinogen call (Species: MOUSE, Strain/Sex: B6C3F1/MALE, Route: ORAL, 8.1, 27.2, 43.4 MG/KG/D IN 0.25% EMULPHOR IN DRINKING WATER FOR 100 WK (STUDY DURATION: 100 WK), 8.1, 27.2, 43.4 MG/KG/D IN 0.25% EMULPHOR IN DRINKING WATER FOR 100 WK (STUDY DURATION: 100 WK)) was “inactive; negative”, the carcinogen call (Species: Mouse, Strain/Sex: B6C3F1/female, Route: Oral, 175, 350, 700 mg/L (about 0, 9, 18, and 36 mg/kg, respectively) in drinking water for 104 wk, 175, 350, 700 mg/L (about 0, 9, 18, and 36 mg/kg, respectively) in drinking water for 104 wk) was “inactive; negative” and the carcinogen call (Species: RAT, Strain/Sex: F344/FEMALE, Route: GAVAGE, 50, 100 MG/KG IN CORN OIL 5D/WK FOR 102 WK (STUDY DURATION: 104 WK), 50, 100 MG/KG IN CORN OIL 5D/WK FOR 102 WK (STUDY DURATION: 104 WK), Tumor Site: Type of Lesion: LARGE INTESTINE: ADENOMATOUS POLYP, LARGE INTESTINE: ADENOCARCINOMA, LARGE INTESTINE: ADENOMATOUS POLYP OR ADENOCARCINOM, Tumor Site: Type of Lesion: LARGE INTESTINE: ADENOMATOUS POLYP, LARGE INTESTINE: ADENOCARCINOMA, LARGE INTESTINE: ADENOMATOUS POLYP OR ADENOCARCINOM) was “active; positive”. For the same molecule, the carcinogen call (Species: RAT, Strain/Sex: F344/MALE, Route: GAVAGE, 50, 100 MG/KG IN CORN OIL 5D/WK FOR 102 WK (STUDY DURATION: 104 WK), 50, 100 MG/KG IN CORN OIL 5D/WK FOR 102 WK (STUDY DURATION: 104 WK), Tumor Site: Type of Lesion: LARGE INTESTINE: ADENOCARCINOMA, LARGE INTESTINE: ADENOMATOUS POLYP, LARGE INTESTINE: ADENOMATOUS POLYP OR ADENOCARCINOM, Tumor Site: Type of Lesion: LARGE INTESTINE: ADENOCARCINOMA, LARGE INTESTINE: ADENOMATOUS POLYP, LARGE INTESTINE: ADENOMATOUS POLYP OR ADENOCARCINOM) was “active; positive”, the carcinogen call (Species: RAT, Strain/Sex: F344/MALE, Route: ORAL, 3.9, 20.6, 36.3 MG/KG/D IN 0.25% EMULPHOR IN DRINKING WATER FOR 100 WK (STUDY DURATION: 100 WK), 3.9, 20.6, 36.3 MG/KG/D IN 0.25% EMULPHOR IN DRINKING WATER FOR 100 WK (STUDY DURATION: 100 WK), Tumor Site: Type of Lesion: LIVER: HEPATOCELLULAR ADENOMA, HEPATOCELLULAR ADENOMA OR HEPATOCELLULAR CARCINOMA) was “active; positive” and the carcinogen call (Species: RAT, Strain/Sex: WISTAR/FEMALE, Route: ORAL, 1.2 ML/L (15 MILLIMOLAR) IN DRINKING WATER FOR 72 WK THEN DOSE HALVED FOR DURATION OF STUDY (STUDY DURATION: LIFETIME, Tumor Site: Type of Lesion: LIVER: NEOPLASTIC NODULES, LYMPHOID TISSUE: LYMPHOSARCOMA) was “active; positive”. The carcinogen call (Species: RAT, Strain/Sex: WISTAR/MALE, Route: ORAL, 1.2 ML/L (15 MILLIMOLAR) IN DRINKING WATER FOR 72 WK THEN DOSE HALVED FOR DURATION OF STUDY (STUDY DURATION: LIFETIME) was “inactive; negative” and the carcinogen call (Species: Rat, Strain/Sex: F344/N/male, Route: Oral, 175, 350, 700 mg/L (about 0, 6, 12, and 25 mg/kg, respectively) in drinking water for 104 wk, 175, 350, 700 mg/L (about 0, 6, 12, and 25 mg/kg, respectively) in drinking water for 104 wk) was “inactive; negative”.
With `C1O[C@@H]1[C@H]1CO1` the carcinogen call (Species: MOUSE, Strain/Sex: B6C3F1/FEMALE, Route: INHALATION, 2.5, 5.0 PPM 6 HR/D 5 D/WK FOR 6 WK (STUDY DURATION: 84 WK), 2.5, 5.0 PPM 6 HR/D 5 D/WK FOR 6 WK (STUDY DURATION: 84 WK), Tumor Site: Type of Lesion: HARDERIAN GLAND: TUMOR) was “active; positive” and the carcinogen call (Species: RAT, Strain/Sex: SPRAGUE-DAWLEY/FEMALE, Route: INHALATION, 2.5, 5.0 PPM 6 HR/D 5 D/WK FOR 6 WK (STUDY DURATION: 84 WK), 2.5, 5.0 PPM 6 HR/D 5 D/WK FOR 6 WK (STUDY DURATION: 84 WK), Tumor Site: Type of Lesion: NASAL MUCOSA: TUMOR) was “active; positive”.
